Entries after “also recorded” stand apart in the source; their conditions may differ. Where a name gives a salt, the structure may show the parent alone. Read-outs that look alike come from different tables or passages of the source.
What was measured:
[1] = assay type: in vitro ADME; settings: bovine
Excerpt: However, despite the promising pre-clinical results with flavopiridol in CLL and virtually all hematologic malignancies, the efficacy of flavopiridol in treating CLL in all of the clinical studies reported thus far are disappointing. […] See for example, Byrd J. C. et al., “Treatment of Relapsed Chronic Lymphocytic Leukemia by 72-hour Continuous Infusion or 1-Hour Bolus Infusion of Flavopiridol: Results from Cancer and Leukemia Group B Study 19805,” Clin. Cancer Res. 2005; 11(11) Jun. 1, 2005, 4176-4181, and references cited therein. The schedules selected in these unsuccessful trials were modeled after in vitro studies performed in fetal bovine serum-based media.
Based upon the poor clinical results in all the trials reported to date with flavopiridol, the present invention contemplated the possibility that differential protein binding could exist between these two culture media. […] Additionally, the 1-hour LC50 concentration for CLL cells in human serum was generally not obtained in the solid tumor phase I trial exploring this schedule. Thus, the prolonged continuous infusion or bolus dosing schedules previously explored in CLL and NHL may not achieve pharmacologically effective drug concentrations of flavopiridol, thereby explaining the absence of activity in the continuous infusion schedules and the marginal activity with the IV bolus schedule. […]

[2] = tested on: patients with CLL or small lymphocytic lymphoma; experiment: Example 1 phase I trial: toxicity; assay type: in vivo
Procedure: Subjects: All patients provided written informed consent. […] Flavopiridol was administered via a central venous catheter. […] The ability to perform bedside emergent dialysis was assured.
Toxicity Observed with Flavopiridol: Six patients were initially treated in dose level 1 (30 mg/m^2 bolus followed by 30 mg/m^2 4-hour infusion), with one patient having dose limiting toxicity (neutropenic fever). Dose escalation proceeded to dose level 2, with three patients being treated. […] On autopsy, extensive apoptosis/necrosis of diffuse intra-abdominal lymphadenopathy was found. No additional patients were treated at this dose, but patient one of dose level 2, who previously had not experienced TLS at the 80 mg/m^2/dose, developed this toxicity on day 1 of cycle 2 while receiving a 60 mg/m^2 dose. All treatment was put on hold and an aggressive monitoring mechanism was put into place. Fourteen additional patients were treated at the level 1 dose utilizing this protocol. While biochemical evidence of TLS was present in most patients receiving therapy, only one developed significant TLS that required temporary dialysis for medically uncontrollable hyperkalemia on day 1 of therapy. While grade 1 (n=11) or 2 (n=6) diarrhea occurred in the majority of patients treated at the level 1 dose, this was generally short-lived. Similarly, transient grade 1 (n=13) or grade 2 (n=6) fatigue was observed.

[3] = tested on: patients with CLL or small lymphocytic lymphoma; experiment: Example 1 phase I trial: response (NCI 96 criteria); assay type: in vivo, human
Excerpt: (§1) Subjects: All patients provided written informed consent. Patients had CLL or small lymphocytic lymphoma and required therapy according to the NCI criteria. […] Enrollment requirements included: age older than 17 years, symptomatic by the NCI 96 criteria, platelet count greater than 49×10^9/L, ECOG performance status of 2 or less, no active infection or inflammatory bowel disease, and not pregnant. The serum creatinine and total bilirubin levels were required to be no more than 2.0 times the normal value. Design, Treatment and Dose Modifications: This study utilized a modified phase I design, enrolling three to six patients per level until two of the first six patients experienced dose limiting toxicity. Expansion of the dose level below this occurred to a minimum of six patients to assure safety for phase II investigation. Flavopiridol was administered via a central venous catheter. The schedule of flavopiridol included receiving 50% of the dose as a 30-minute bolus infusion and the remaining 50% dose as a 4-hour infusion every week for four consecutive weeks, followed by two weeks off. The total dose administered in level 1 was 60 mg/m^2 (i.e. 30 mg/m^2 as 30 minute bolus followed by 30 mg/m^2 4-hour continuous infusion). In level 2 the dose was 80 mg/m^2 (i.e. 40 mg/m^2 bolus and 40 mg/m^2 infusion). All patients received allopurinol 300 mg/day beginning one day prior to initiation of treatment and continued during therapy. All patients received prophylactic anti-viral and Pneumocystis carinii pneumonia therapy as described previously during and for six months following completion of therapy. […] Aggressive management of hyperkalemia including kayexalate therapy, insulin and glucose therapy, and calcium therapy was employed according to an established protocol. The ability to perform bedside emergent dialysis was assured. Prophylactic rasburicase was utilized in patients with bulky lymphadenopathy or high lymphocyte counts. Following five treatments with flavopiridol, treatment was transitioned to outpatient status with two hours of hydration before and through therapy with abbreviated laboratory monitoring. Patients could discontinue therapy for stable disease without improvement after two cycles (eight treatments). Otherwise, patients continued therapy in the absence of progression or toxicity that prohibited further treatment for a maximum of six cycles (24 treatments) of flavopiridol. Patients were evaluated for response after two, four, and six cycles of therapy. Dose Limiting Toxicity: Dose limiting toxicity was defined as non-hematologic toxicity of grade 3 or greater severity (excluding transient liver function abnormalities, transient non-life-threatening electrolyte abnormalities, fatigue, or diarrhea that resolve within four days), or in some case grade 2 toxicity (i.e. irreversible renal, chronic pulmonary, neurologic, or cardiac toxicity). Hematologic toxicity was dose limiting only if grade 4 thrombocytopenia or neutropenia persisted for seven days or greater. The NCI Common Toxicity Criteria was used to grade non-hematologic toxicity and the NCI 96 CLL criteria for hematologic toxicity. See, Cheson B. D., et al. “National Cancer Institute-sponsored Working Group guidelines for chronic lymphocytic leukemia: revised guidelines for diagnosis and treatment,” Blood 1996; 87:4990-7. Assessment of Response: Criteria for response and progression utilized the Revised NCI-sponsored Working Group Guidelines as mentioned above. As specified by these guidelines, a response had to be maintained for a period of two months.

[4] = tested on: Mcl-1; experiment: Example 1 cellular pharmacodynamics: immunoblot of Mcl-1 in primary CLL cells during treatment; assay type: in vivo, human
Excerpt: (§2) Subjects: All patients provided written informed consent. Patients had CLL or small lymphocytic lymphoma and required therapy according to the NCI criteria. […] Enrollment requirements included: age older than 17 years, symptomatic by the NCI 96 criteria, platelet count greater than 49×10^9/L, ECOG performance status of 2 or less, no active infection or inflammatory bowel disease, and not pregnant. The serum creatinine and total bilirubin levels were required to be no more than 2.0 times the normal value. Design, Treatment and Dose Modifications: This study utilized a modified phase I design, enrolling three to six patients per level until two of the first six patients experienced dose limiting toxicity. Expansion of the dose level below this occurred to a minimum of six patients to assure safety for phase II investigation. Flavopiridol was administered via a central venous catheter. The schedule of flavopiridol included receiving 50% of the dose as a 30-minute bolus infusion and the remaining 50% dose as a 4-hour infusion every week for four consecutive weeks, followed by two weeks off. The total dose administered in level 1 was 60 mg/m^2 (i.e. 30 mg/m^2 as 30 minute bolus followed by 30 mg/m^2 4-hour continuous infusion). In level 2 the dose was 80 mg/m^2 (i.e. 40 mg/m^2 bolus and 40 mg/m^2 infusion). […] Patients were evaluated for response after two, four, and six cycles of therapy. […]

[5] = tested on: RNA polymerase II; experiment: Example 1 cellular pharmacodynamics: RNA polymerase II serine-5 phosphorylation in primary CLL cells during treatment; assay type: in vivo, human; settings: eight patients examined
Excerpt: as §2

[6] = Example 1 plasma pharmacokinetics (LC/MS); settings: for half-life: plasma, intravenous
Excerpt: as §1

[7] = tested on: patients with CLL; settings: human, in vivo
Excerpt: (§3) Fifty-six patients were enrolled in this clinical trial with the median prior therapies being 4 and the majority being fludarabine-refractory. […] Cohort 1 was expanded with aggressive TLS prophylaxis. Of the 20 patients in cohort 1, 8 (40%) attained a partial response (PR) with median response duration exceeding 12 months. […] Cohort 3 and 4 did this (Table 4) with acceptable toxicity. Cohort 3 included 19 patients of whom 14 were escalated with the 5th dose. […] Ten (53%) of patients attained a partial response. […] TLS risk factors were examined for the first treatment dose in cohorts 1-3. WBC of ≧200×10^9/L were more frequently associated with TLS (5 of 8 pts) versus those with WBC<200×10^9/L (1 of 34 pts). Cohort 4 excludes pts with WBC≧200×10^9/L and currently includes 14 pts. Safety has been acceptable with only 1 case of TLS. Response assessment for cohort 4 is underway, with anti-tumor activity appearing similar to that observed in cohort 3.

[8] = tested on: patients with CLL; experiment: Example 2 clinical trial: response; assay type: in vivo, human
Excerpt: as §3

[9] = Example 2 clinical trial: plasma Cmax; assay type: in vivo; settings: human, intravenous
Excerpt: as §3

[10] = tested on: relapsed CLL; settings: cited from earlier work; for clinical activity / response: CLL, hydrochloride
[11] = tested on: CLL cells; experiment: cells; assay type: cell-based; settings: Homo sapiens, CLL cell
Excerpt: Based upon the poor clinical results in all the trials reported to date with flavopiridol, the present invention contemplated the possibility that differential protein binding could exist between these two culture media. […] Additionally, the 1-hour LC50 concentration for CLL cells in human serum was generally not obtained in the solid tumor phase I trial exploring this schedule. Thus, the prolonged continuous infusion or bolus dosing schedules previously explored in CLL and NHL may not achieve pharmacologically effective drug concentrations of flavopiridol, thereby explaining the absence of activity in the continuous infusion schedules and the marginal activity with the IV bolus schedule. Given the novel mechanism of action of flavopiridol, as well as its ability to induce apoptosis independent of p53 dysfunction and modulate critical anti-apoptotic proteins such as Mcl-1 in vitro, and utilizing pharmacokinetic modeling a new dosing regimen in accordance with this invention was developed.

[12] = 23 CLL patients, 30-min bolus + 4-h infusion
[13] = Cohort 1, 30 mg/m^2 + 30 mg/m^2, 20 pts
[14] = Cohort 2, 40 mg/m^2 + 40 mg/m^2, 3 pts
[15] = cohort 1, 30 mg/m^2 + 30 mg/m^2
[16] = cohort 3 at the escalated doses (30 mg/m^2 + 50 mg/m^2)

CN1CCC(c2c(O)cc(O)c3c(=O)cc(-c4ccccc4Cl)oc23)[C@H](O)C1.Cl (stereo partly drawn) [Flavopiridol, (cis-5,7-dihydroxy-2-(2-chlorophenyl)-8-[4-(3-hydroxy-1-methyl)-piperidinyl]-1-benzopyran-4-one) hydrochloride]
free drug level [1]: 63-100% | toxicity in patient three at dose level 2 ([2]; 40 mg/m^2 bolus + 40 mg/m^2 infusion, day 1): TLS complicated by uncontrollable hyperkalemia and subsequent fatal asystole | Number of patients with AST Elevation Grade 5 [2, 12]: 0 | Number of patients with Anemia Grade 5 [2, 12]: 0 | Number of patients with Arthralgias Grade 5 [2, 12]: 0 | Number of patients with Diarrhea Grade 5 [2, 12]: 0 | Number of patients with Dyspnea Grade 5 [2, 12]: 0 | Number of patients with Edema Grade 5 [2, 12]: 0 | Number of patients with Fatigue Grade 5 [2, 12]: 0 | Number of patients with Hypokalemia Grade 5 [2, 12]: 0 | Number of patients with Infection Grade 3 [2, 12]: 5 | Number of patients with Infection Grade 4 [2, 12]: 0 | Number of patients with Infection Grade 5 [2, 12]: 0 | Number of patients with Neutropenia Grade 5 [2, 12]: 0 | Number of patients with Syncope Grade 5 [2, 12]: 0 | Number of patients with Thrombocytopenia Grade 5 [2, 12]: 0 | Number of patients with Tumor Lysis Syndrome Grade 5 [2, 12]: 1 | Percentage of patients with Infection Grade 3 [2, 12]: (22%) | Percentage of patients with Tumor Lysis Syndrome Grade 5 [2, 12]: 4% | patients with grade 1 diarrhea ([2]; human, in vivo): 11 | patients with grade 2 diarrhea ([2]; human, in vivo): 6 | patients with transient grade 1 fatigue ([2]; human, in vivo): 13 | patients with transient grade 2 fatigue ([2]; human, in vivo): 6 | patients developing significant TLS that required temporary dialysis ([2]; in vivo): one | duration of partial response in patient two at dose level 2 ([3]; 40 mg/m^2 bolus + 40 mg/m^2 infusion): > 13 month | patients attaining a partial response (NCI 96 criteria), number ([3]; among the 23 patients enrolled): ten | patients attaining a partial response (NCI 96 criteria), percentage ([3]; among the 23 patients enrolled): 43% | responding patients relapsed ([3]; of ten responders, at eight and sixteen months): two | responding patients remaining in continuous remission ([3]; of ten responders, at five to 14+ months): Eight | patients experiencing a 50% or greater reduction in lymphadenopathy ([3]; of the nine patients with measurable lymphadenopathy, by day 8 of cycle 1): eight | patients with significant modulation of Mcl-1 ([4]; of the five non-responding patients examined): None | patients with decreased expression of Mcl-1 with treatment ([4]; of three responding patients examined): two | change in serine-5 phosphorylation of RNA polymerase II [5]: no change | CL ([6]; 30 + 30 mg/m^2 (n = 20), Mean ± S.D.): 14.5 ± 6.5 L/hr/m^2 | inter-patient variability of Cmax ([6]; human, in vivo): two to three-fold | Cmax ([6]; human, in vivo, 80 mg/m^2): 4400 nM | half-life ([6]; human, t1/2, 30 + 30 mg/m^2 (n = 20), Mean ± S.D.): 14 ± 10.2 h | half-life ([6]; human, terminal half-life, mean±S.D., after the end of the 4-hour CIVI): 14 ± 10.2 h | half-life ([6]; human, terminal half-life, range, after the end of the 4-hour CIVI): 1.1 to 42.5 h | cases of TLS [7]: 1 | Response Rate (partial response), number of patients [8, 13]: 8 | Response Rate (partial response), percentage [8, 13]: 40% | Response Rate, number of patients [8, 14]: 1 | Response Rate, percentage [8, 14]: 33% | Response Rate (partial response), percentage ([8]; Cohort 3, 30 + 30 mg/m^2 dose 1-4 then 30 + 50 mg/m^2, 19 pts): 53% | median response duration ([8]; cohort 1 responders): exceeding 12 months | tumor cytoreduction with dose escalation ([8]; cohort 3, 14 patients escalated with the 5th dose): Increased tumor cytoreduction was observed in a majority of patients | Cmax at 0.5 hr [9, 15]: 2080 nM | Cmax at 4.5 hr [9, 15]: 960 nM | Cmax at 0.5 hr [9, 16]: 1950 nM | Cmax at 4.5 hr [9, 16]: 1540 nM | response rate ([10]; 1-hour bolus, relapsed CLL): 11% | clinical activity / response ([10]; 24-hour infusion): No activity; also recorded: no patients with CLL responded | clinical activity / response ([10]; 72-hour continuous infusion): No activity; also recorded: no patients with CLL responded

CN1CC[C@H](c2c(O)cc(O)c3c(=O)cc(-c4ccccc4Cl)oc23)[C@H](O)C1 [Flavopiridol, (cis-5,7-dihydroxy-2-(2-chlorophenyl)-8-[4-(3-hydroxy-1-methyl)-piperidinyl]-1-benzopyran-4-one) hydrochloride]
CC50 ([11]; 1 h, read-out: 1-hour LC50 required to induce apoptosis in CLL cells, 1-hour exposure, fetal calf serum): 670 nM | CC50 ([11]; 1 h, read-out: 1-hour LC50 required to induce apoptosis in CLL cells, 1-hour exposure, human serum): 3510 nM | CC50 ([11]; 24 h, read-out: 24-hour LC50 required to induce apoptosis in CLL cells, 24-hour exposure, fetal calf serum): 120 nM | CC50 ([11]; 24 h, read-out: 24-hour LC50 required to induce apoptosis in CLL cells, 24-hour exposure, human serum): 470 nM
